Values of other authors, collected in patent US20050069593A1, “Nutritional supplement containing 7-Keto-DHEA and conjugated linoleic acid” (LIFE TIME FITNESS, Inc., priority 2003, published 2005).

System: brown adipose tissue
Details: in vitro; Dulloo, et al., Int. J. Obes. Relat. Metab. Disord. 24, 252 (2000)

O=C(O[C@@H]1Cc2c(O)cc(O)cc2O[C@@H]1c1cc(O)c(O)c(O)c1)c1cc(O)c(O)c(O)c1 [EGCG, epigallocatechin gallate]
respiration rate of brown adipose tissue: increased
